The values that follow come from DBAASP.

Among the test systems are Escherichia coli mcr; Shigella flexneri; Aeromonas salmonicida; Escherichia coli K-12; Bacillus subtilis 168; Pseudomonas aeruginosa; Enterococcus faecalis; Vibrio alginolyticus; Salmonella sp.; Staphylococcus aureus; Streptococcus iniae; Glaesserella parasuis; Escherichia coli; Lactococcus garvieae; Botrytis cinerea; Escherichia coli SBS 363; Fusarium oxysporum.
Holding throughout (experiment): ≥ marks a high value that may be exact or a test limit, other limits are often not marked, values filed in µg/mL are converted to µM
Assay [1] concerns Staphylococcus aureus ATCC 29213.
Assay [2] relates to Escherichia coli KCTC 1682.
The subject of assay [3] is Aeromonas salmonicida NCTC 7812.
In assay [4] the test system is Acinetobacter baumannii CCARM 12005.
In assay [5] the test system is Bacillus subtilis KCTC 3068.
The subject of assay [6] is Escherichia coli CCARM 1229.
Assay [7] deals with Actinobacillus pleuropneumoniae.
The subject of assay [8] is Staphylococcus aureus CCARM 3126.
In assay [9] the test system is Pseudomonas aeruginosa KCTC 2513.
Assay [10] deals with Staphylococcus aureus CCARM 3114.
Assay [11] relates to Staphylococcus aureus KCTC 1916.
In assay [12] the test system is Pseudomonas aeruginosa PAO1.
In assay [13] the test system is Staphylococcus aureus CCARM 3089.
In assay [14] the test system is Staphylococcus aureus CCARM 3108.
Assay [15] concerns Pseudomonas aeruginosa KCTC 2004.
Assay [16] concerns Enterococcus faecalis ATCC 29212.
Assay [17] relates to Pseudomonas aeruginosa CCARM 2002.
Assay [18] relates to Bacillus subtilis KCTC 1021.
For assay [19], the system named is Salmonella typhimurium CVCC 542.
The test system of assay [20] is Staphylococcus aureus USA 300.
The subject of assay [21] is Salmonella typhimurium KCTC 1926.
Assay [22] deals with Pseudomonas aeruginosa KCTC 1637.
Assay [23] deals with Staphylococcus epidermidis KCTC 1917.
Assay [24] has as its system Escherichia coli KCTC 2593.
Assay [25] relates to Escherichia coli KCTC 2571.
In assay [26] the test system is Staphylococcus aureus CCARM 3090.
Assay [27] relates to Salmonella typhimurium CCARM 8003.
Assay [28] has as its system Bacillus subtilis KCTC 1022.
Assay [29] deals with Staphylococcus aureus KCTC 3881.
For assay [30], the system named is Staphylococcus aureus KCTC 1621.
For assay [31], the system named is Micrococcus luteus CIP 5345.

Values after ≈ are worked out from the molar mass of the structure shown. Values joined by “and” are separate entries in the source; they are usually repeats but may differ in a detail not shown here. Identical values can stand only once.

Regarding `CC[C@H](C)[C@H](NC(=O)CNC(=O)[C@H](CCCNC(=N)N)NC(=O)[C@H](Cc1ccccc1)NC(=O)[C@@H](NC(=O)[C@H](Cc1cnc[nH]1)NC(=O)[C@H](Cc1cnc[nH]1)NC(=O)[C@H](Cc1ccccc1)NC(=O)[C@@H](N)Cc1ccccc1)[C@@H](C)CC)C(=O)N[C@H](C(=O)N[C@@H](Cc1cnc[nH]1)C(=O)N[C@H](C(=O)NCC(=O)N[C@@H](CCCCN)C(=O)N[C@H](C(=O)N[C@H](C(=O)N[C@@H](Cc1cnc[nH]1)C(=O)N[C@@H](CCCNC(=N)N)C(=O)N[C@@H](CC(C)C)C(=O)N[C@H](C(=O)N[C@H](C(=O)NCC(=O)O)[C@@H](C)O)C(C)C)[C@@H](C)CC)[C@@H](C)O)C(C)C)C(C)C` [FFHHIFRGIVHVGKTIHRLVTG], the MIC (commonly the lowest concentration that inhibits growth of the organism) in the assay with Escherichia coli mcr is 2.2 µM (≈ 5.66 µg/mL); in assay [1], 2.43 µM (≈ 6.25 µg/mL); with Shigella flexneri, 1.21 µM (≈ 3.1 µg/mL); in [2], 2 µM (≈ 5.14 µg/mL); in assay [3], no less than 77.8 µM; in assay [4], 2 µM (≈ 5.14 µg/mL). Further, the MIC is 2 µM (≈ 5.14 µg/mL) in assay [5]; 4 µM (≈ 10.3 µg/mL) in assay [6]; 1.21 µM (≈ 3.1 µg/mL) with Aeromonas salmonicida; 6.22 µM (≈ 16 µg/mL) in assay [7]; 4 µM (≈ 10.3 µg/mL) in assay [8]; 2 µM (≈ 5.14 µg/mL) in assay [9]. In addition, the MIC was 4 µM (≈ 10.3 µg/mL) in assay [10]; 1 µM (≈ 2.57 µg/mL) in assay [11]; 50 µM (≈ 129 µg/mL) in assay [12]; 12.5 µM (≈ 32.2 µg/mL) against Escherichia coli K-12; 12.5 µM (≈ 32.2 µg/mL) against Bacillus subtilis 168; 8 µM (≈ 20.6 µg/mL) in assay [13]. Further, the minimal inhibitory concentration (MIC) against Pseudomonas aeruginosa was 4.86 µM and 12.4 µM; in assay [14], 4 µM (≈ 10.3 µg/mL); in the assay on Enterococcus faecalis, 1.21 µM (≈ 3.1 µg/mL); with Vibrio alginolyticus, 1.21 µM (≈ 3.1 µg/mL); in the assay with Salmonella sp. it was 6.22 µM (≈ 16 µg/mL); in [15] it was 2 µM (≈ 5.14 µg/mL). Moreover, the minimal inhibitory concentration (MIC) in assay [16] worked out at 1.22 µM (≈ 3.14 µg/mL); in assay [17] it was 2 µM (≈ 5.14 µg/mL); in assay [18], 2 µM (≈ 5.14 µg/mL); in [19], 6.22 µM (≈ 16 µg/mL); in assay [20] it was 3.1 µM (≈ 7.97 µg/mL); in [21], 2 µM (≈ 5.14 µg/mL). The minimal inhibitory concentration (MIC) against Staphylococcus aureus worked out at 1.21 µM (≈ 3.1 µg/mL); in the assay on Streptococcus iniae, 1.21 µM (≈ 3.1 µg/mL); in assay [22], 4 µM (≈ 10.3 µg/mL); against Glaesserella parasuis it was 3.11 µM (≈ 8 µg/mL); in assay [23], 2 µM (≈ 5.14 µg/mL); in [24] it was 1 µM (≈ 2.57 µg/mL). In addition, the MIC in assay [25] is 1 µM (≈ 2.57 µg/mL); in assay [26], 8 µM (≈ 20.6 µg/mL); in [27], 4 µM (≈ 10.3 µg/mL); in assay [28], 1 µM (≈ 2.57 µg/mL); against Escherichia coli, 1.21 µM (≈ 3.1 µg/mL); in assay [29], 2 µM (≈ 5.14 µg/mL). Moreover, the MIC was 1.21 µM (≈ 3.1 µg/mL) against Lactococcus garvieae and 4 µM (≈ 10.3 µg/mL) in [30].

Consider `NCCCC[C@H](NC(=O)[C@@H]1CCCN1C(=O)[C@@H](N)CCCN=C(N)N)C(=O)N1CCC[C@H]1C(=O)N[C@@H](CCCN=C(N)N)C(=O)N1CCC[C@H]1C(=O)N[C@@H](CCCN=C(N)N)C(=O)N1CCC[C@H]1C(=O)N[C@@H](CCCN=C(N)N)C(=O)N1CCC[C@H]1C(=O)N[C@@H](CCC(=O)O)C(N)=O` [RPKPRPRPRPE], for which the minimum inhibitory concentration (MIC) in [31] is no less than 200 µM; against Botrytis cinerea it was no less than 100 µM; in the assay on Escherichia coli SBS 363, no less than 200 µM; against Fusarium oxysporum it was no less than 100 µM.
